From PubChem BioAssay AID1259408 (Genetic Toxicology Data Bank (GENE-TOX), 2018)
Calls of active or inactive are those of the source. How the calls were made is not given here.

Tested on: GENE-TOX genotoxicity assays, various organisms and cells
Assay: GENE-TOX mutagenicity studies
Conditions: for call: Assay Type: In vivo carcinogenicity studies, Assay Code: CCG+
Source text: GENE-TOX provides genetic toxicology (mutagenicity) test data from expert peer review of open scientific literature for more than 3,000 chemicals from the United States Environmental Protection Agency (EPA). GENE-TOX was established to select assay systems for evaluation, review data in the scientific literature, and recommend proper testing protocols and evaluation procedures for these systems.
GENE-TOX covers the years 1991 - 1998. It is no longer updated.
This is an archive assay for GENE-TOX mutagenicity studies.

[1] = Species/Cell Type: Salmonella typhimurium (one or more of the five standard strains: TA98, TA100, TA1535, TA1537, and TA1538), Assay Type: Histidine reverse gene mutation, Ames assay, Assay Code: SAL+*, Activation: With metabolic activation, Evaluation Type: Evaluation A (Pre-1980)
[2] = Species/Cell Type: Drosophila melanogaster, Assay Type: Sex-linked recessive lethal gene mutation, Assay Code: SRL+, Evaluation Type: Evaluation A (Pre-1980)
[3] = Species/Cell Type: Escherichia coli polA (W3119 vs P3478), Assay Type: Rec-assay, DNA effects (bacterial DNA repair), Assay Code: RE1+, Evaluation Type: Evaluation A (Pre-1980)
[4] = Species/Cell Type: Fischer rat embryo (RLV/1706) cells, Assay Type: Cell transformation, viral enhanced, Assay Code: CTR+, Evaluation Type: Evaluation A (Pre-1980)
[5] = Species/Cell Type: Human lymphocytes, Assay Type: Sister-chromatid exchange (SCE) in vitro, Assay Code: SCL+D, Dose Response: With dose response, Evaluation Type: Evaluation B (Post-1980)
[6] = Species/Cell Type: Human, Assay Type: Sister-chromatid exchange (SCE) in vitro, Assay Code: SC1+D, Dose Response: With dose response, Evaluation Type: Evaluation B (Post-1980)
[7] = Species/Cell Type: Nonhuman, Evaluation Type: Evaluation A (Pre-1980)
[8] = Species/Cell Type: Nonhuman, Assay Type: Sister-chromatid exchange (SCE) in vitro, Assay Code: SC2+D, Dose Response: With dose response, Evaluation Type: Evaluation A (Pre-1980)
[9] = Species/Cell Type: Saccharomyces cerevisiae, Assay Type: Mitotic recombination or gene conversion, Assay Code: YEH+, Evaluation Type: Evaluation A (Pre-1980)
[10] = Species/Cell Type: Salmonella typhimurium (one or more of the five standard strains: TA98, TA100, TA1535, TA1537, and TA1538), Assay Type: Histidine reverse gene mutation, Ames assay, Assay Code: SAL+, Evaluation Type: Evaluation A (Pre-1980)
[11] = Species/Cell Type: Salmonella typhimurium, Assay Type: Forward and reverse gene mutation, host-mediated assay, Assay Code: HMA+, Evaluation Type: Evaluation A (Pre-1980)
[12] = Species/Cell Type: Mammalian polychromatic erythrocytes, Assay Type: Micronucleus test, chromosome aberrations, Assay Code: MNTT, Evaluation Type: Evaluation A (Pre-1980)
[13] = Species/Cell Type: Human lymphocytes or leukocytes, Assay Type: Chromosome aberrations in vitro, Assay Code: CY7+, Evaluation Type: Evaluation A (Pre-1980)
[14] = Species/Cell Type: Nonhuman, Assay Type: Sister-chromatid exchange (SCE) in vitro, Assay Code: SC2+D, Dose Response: With dose response, Evaluation Type: Evaluation B (Post-1980)

## CCCN(CCCCO)N=O
[1]
  mutagenic call: active; positive

## C1OC1C1CO1 (stereo not given)
Species/Cell Type: Aspergillus nidulans, Assay Type: Forward gene mutation, Assay Code: ASF+, Evaluation Type: Evaluation A (Pre-1980)
  mutagenic call: active; positive
Species/Cell Type: Aspergillus nidulans, Assay Type: Mitotic recombination, Assay Code: ASG+, Evaluation Type: Evaluation A (Pre-1980)
  mutagenic call: active; positive
[2]
  mutagenic call: active; positive
Species/Cell Type: Drosophila melanogaster, Sex: Male, Assay Type: Heritable translocation test, chromosome aberrations, Assay Code: DHT+, Evaluation Type: Evaluation A (Pre-1980)
  mutagenic call: active; positive
[3]
  mutagenic call: active; positive
[4]
  mutagenic call: active; positive
Species/Cell Type: Glycine max (soybean), Assay Type: Gene mutation, Assay Code: GLM+, Evaluation Type: Evaluation A (Pre-1980)
  mutagenic call: active; positive
Species/Cell Type: Hordeum vulgare (barley), Assay Type: Chromosome aberrations, Assay Code: HOC+, Evaluation Type: Evaluation A (Pre-1980)
  mutagenic call: active; positive
[5]
  mutagenic call: active; positive
[6]
  mutagenic call: active; positive
Species/Cell Type: Mouse (BALB/c-3T3) cells, Assay Type: Cell transformation, Assay Code: CTB+D, Dose Response: With dose response, Evaluation Type: Evaluation A (Pre-1980)
  mutagenic call: active; positive
Species/Cell Type: Neurospora crassa, Assay Type: Forward gene mutation, Assay Code: NEF+, Evaluation Type: Evaluation A (Pre-1980)
  mutagenic call: active; positive
Species/Cell Type: Neurospora crassa, Assay Type: Reverse gene mutation, Assay Code: NER+, Evaluation Type: Evaluation A (Pre-1980)
  mutagenic call: active; positive
[7]
  call: active; positive
[8]
  mutagenic call: active; positive
Species/Cell Type: Nonhuman, Assay Type: Sister-chromatid exchange (SCE) in vivo, Assay Code: SC3+D, Dose Response: With dose response, Evaluation Type: Evaluation B (Post-1980)
  mutagenic call: active; positive
Species/Cell Type: Saccharomyces cerevisiae, Assay Type: Mitotic recombination or gene conversion, Assay Code: YEC+, Evaluation Type: Evaluation A (Pre-1980)
  mutagenic call: active; positive
[9]
  mutagenic call: active; positive
Species/Cell Type: Saccharomyces cerevisiae, Assay Type: Reverse gene mutation, Assay Code: YER+, Evaluation Type: Evaluation A (Pre-1980)
  mutagenic call: active; positive
[10]
  mutagenic call: active; positive
[11]
  mutagenic call: active; positive
Species/Cell Type: Schizosaccharomyces pombe, Assay Type: Reverse gene mutation, Assay Code: YEZ+, Evaluation Type: Evaluation A (Pre-1980)
  mutagenic call: active; positive
Species/Cell Type: Syrian hamster embryo (SHE) cells, Assay Type: Cell transformation, clonal assay, Assay Code: CTC+D, Dose Response: With dose response, Evaluation Type: Evaluation A (Pre-1980)
  mutagenic call: active; positive
Species/Cell Type: Vicia faba, Assay Type: Chromosome aberrations, Assay Code: VIC+D, Dose Response: With dose response, Evaluation Type: Evaluation A (Pre-1980)
  mutagenic call: active; positive

## O=C1c2ccccc2C(=O)c2c1cc(O)c(CO)c2O
[10]
  mutagenic call: active; positive

## O=NN1CCN(N=O)CC1
[2]
  mutagenic call: active; positive
Species/Cell Type: Drosophila melanogaster, Sex: Male, Assay Type: Heritable translocation test, chromosome aberrations, Assay Code: DHTT, Evaluation Type: Evaluation A (Pre-1980)
  mutagenic call: no conclusion
Species/Cell Type: Glycine max (soybean), Assay Type: Gene mutation, Assay Code: GLM-, Evaluation Type: Evaluation A (Pre-1980)
  mutagenic call: inactive; negative
Species/Cell Type: Mouse embryo (AKR/ME) cells, Assay Type: Cell transformation, Assay Code: CTK+, Evaluation Type: Evaluation A (Pre-1980)
  mutagenic call: active; positive
[7]
  call: active; positive
[1]
  mutagenic call: active; positive
[11]
  mutagenic call: active; positive

## O=c1[nH]cc(N(CCCl)CCCl)c(=O)[nH]1
[2]
  mutagenic call: active; positive
[3]
  mutagenic call: active; positive
[4]
  mutagenic call: active; positive
Species/Cell Type: Mouse (BALB/c-3T3) cells, Assay Type: Cell transformation, Assay Code: CTB-, Evaluation Type: Evaluation A (Pre-1980)
  mutagenic call: inactive; negative
Species/Cell Type: Mouse lymphoma (L5178Y) cells, Assay Type: Forward gene mutation at the thymidine kinase (TK) locus, chromosome aberrations, Assay Code: L51+, Evaluation Type: Evaluation A (Pre-1980)
  mutagenic call: active; positive
[7]
  call: active; positive
[9]
  mutagenic call: active; positive
[10]
  mutagenic call: active; positive
[11]
  mutagenic call: active; positive

## O=C1CCCO1
[12]
  mutagenic call: no conclusion
Species/Cell Type: Mouse, Sex: Male, Assay Type: Sperm morphology, Assay Code: SPI-, Evaluation Type: Evaluation A (Pre-1980)
  mutagenic call: inactive; negative
Species/Cell Type: Nonhuman, Assay Type: Sister-chromatid exchange (SCE) in vitro, Assay Code: SC2+, Evaluation Type: Evaluation B (Post-1980)
  mutagenic call: active; positive

## COc1cccc2c1C(=O)c1c(O)c3c(c(O)c1C2=O)C[C@@](O)(C(=O)CO)C[C@@H]3O[C@H]1C[C@H](N)[C@H](O)[C@H](C)O1
Species/Cell Type: Chinese hamster lung (V79) cells, Assay Type: Forward gene mutation at the HPRT or ouabain locus, Assay Code: V79+, Evaluation Type: Evaluation A (Pre-1980)
  mutagenic call: active; positive
Species/Cell Type: Chinese hamster ovary (CHO) cells, Assay Type: Forward gene mutation at the HPRT locus, Assay Code: CHO+, Evaluation Type: Evaluation B (Post-1980)
  mutagenic call: active; positive
[4]
  mutagenic call: active; positive
[13]
  mutagenic call: active; positive
[5]
  mutagenic call: active; positive
Species/Cell Type: Human lymphocytes, Assay Type: Sister-chromatid exchange (SCE) in vivo, Assay Code: SCY+D, Dose Response: With dose response, Evaluation Type: Evaluation A (Pre-1980)
  mutagenic call: active; positive
Species/Cell Type: Human, Assay Type: Sister-chromatid exchange (SCE) in vitro, Assay Code: SC1+D, Dose Response: With dose response, Evaluation Type: Evaluation A (Pre-1980)
  mutagenic call: active; positive
Species/Cell Type: Human, Sex: Male, Assay Type: Sperm morphology, Assay Code: SPH+, Evaluation Type: Evaluation A (Pre-1980)
  mutagenic call: active; positive
Species/Cell Type: Mammalian polychromatic erythrocytes, Assay Type: Micronucleus test, chromosome aberrations, Assay Code: MNT+, Evaluation Type: Evaluation A (Pre-1980)
  mutagenic call: active; positive
Species/Cell Type: Mouse, Sex: Male, Assay Type: Sperm morphology, Assay Code: SPI+, Evaluation Type: Evaluation A (Pre-1980)
  mutagenic call: active; positive
[7]
  call: active; positive
[8]
  mutagenic call: active; positive
Species/Cell Type: Nonhuman, Assay Type: Sister-chromatid exchange (SCE) in vivo, Assay Code: SC3+D, Dose Response: With dose response, Evaluation Type: Evaluation A (Pre-1980)
  mutagenic call: active; positive
[10]
  mutagenic call: active; positive

## c1ccc(Nc2ccccc2)cc1
Species/Cell Type: Syrian hamster embryo (SA7/SHE) cells, Assay Type: Cell transformation, viral enhanced, Assay Code: CT7+, Evaluation Type: Evaluation A (Pre-1980)
  mutagenic call: active; positive

## C1CN(P2(N3CC3)=NP(N3CC3)(N3CC3)=NP(N3CC3)(N3CC3)=N2)CCO1 (stereo not given)
[13]
  mutagenic call: active; positive
[5]
  mutagenic call: active; positive
[6]
  mutagenic call: active; positive
[14]
  mutagenic call: active; positive
Species/Cell Type: Rodents, Sex: Male, Assay Type: Dominant lethal test, Assay Code: DLT+, Evaluation Type: Evaluation A (Pre-1980)
  mutagenic call: active; positive

## COc1ccc2c(ccc3c4c(ccc32)C(C)=CC4)c1
[1]
  mutagenic call: active; positive

## [O-][Cl+]O
Species/Cell Type: Mammalian polychromatic erythrocytes, Assay Type: Micronucleus test, chromosome aberrations, Assay Code: MNTT, Evaluation Type: Evaluation B (Post-1980)
  mutagenic call: no conclusion

## Cc1ccc2ccc3c(C)c4ccccc4c(C)c3c2c1
Species/Cell Type: Chinese hamster lung (V79) cells, Assay Type: Forward gene mutation at the HPRT or ouabain locus, Assay Code: V79-*, Activation: With metabolic activation, Evaluation Type: Evaluation A (Pre-1980)
  mutagenic call: inactive; negative

## Cc1ccc(N)cc1O
[12]
  mutagenic call: no conclusion

## O=C(O)C1CCCCN1[N+](=O)[O-] (stereo not given)
Species/Cell Type: Salmonella typhimurium (one or more of the five standard strains: TA98, TA100, TA1535, TA1537, and TA1538), Assay Type: Histidine reverse gene mutation, Ames assay, Assay Code: SALT, Evaluation Type: Evaluation A (Pre-1980)
  mutagenic call: no conclusion

## Cc1cc2ccccc2c2cc3ccccc3cc12
[14]
  mutagenic call: active; positive
Species/Cell Type: Nonhuman, Assay Type: Sister-chromatid exchange (SCE) in vitro, Assay Code: SC2-, Evaluation Type: Evaluation B (Post-1980)
  mutagenic call: inactive; negative
[1]
  mutagenic call: active; positive

## BrCCCCCBr
[3]
  mutagenic call: active; positive

## O=C1O[C@H]([C@H](O)CO)C(O)=C1O
Species/Cell Type: Human, Assay Type: Sister-chromatid exchange (SCE) in vitro, Assay Code: SC1T, Evaluation Type: Evaluation B (Post-1980)
  mutagenic call: no conclusion
